Molecules are shown by their SMILES.

The subject of data set [1] is MCF-7 (breast cancer). As to the kind of experiment: MTT cell viability assay, MCF-7. The data set is classed as cell-based, human. The settings on record: mean ± SD. As for the experimental part: All of the newly synthesized compounds 9–24 were evaluated for their effects on cell viability in three human cancer cell lines: HCT-116 (colon cancer), HeLa (cervical cancer), and MCF-7 (breast cancer). Cisplatin was used as reference drug. […] Considering the activity of derivatives 9–12, 15, 17, 18, and 21–24, it can be noticed that phenyl group as R^3 bring an increase of cytotoxicity in comparison with methyl in place of R^3. However, this impact seems to be the most important for compounds with the bulky group in R^1 and generally, it is less for a set of derivatives with methyl group substituted in R^1 (9–12).
(§1) All chemicals, if not stated otherwise, were obtained from Sigma-Aldrich (St. Louis, MO, USA). The MCF-7 and HeLa cell lines were purchased from Cell Lines Services (Eppelheim, Germany), the HCT-116 cell line was purchased from ATCC (ATCC-No: CCL-247). Cells were cultured in Dulbecco’s modified Eagle’s medium (DMEM) supplemented with 10% fetal bovine serum, 2 mM glutamine, 100 units/cm^3 penicillin, and 100 μg/cm^3 streptomycin. Cultures were maintained in a humidified atmosphere with 5% CO2 at 37 °C in an incubator (Heraceus, HeraCell).
(§2) Cell viability was determined using the MTT (3-(4,5-dimethylthiazol-2-yl)-2,5-diphenyltetrazolium bromide) assay. Cells were seeded in 96-well plates at a density of 5 × 10^3 cells/well and treated for 72 h with the examined compounds in the concentration range 1–100 μM (1, 10, 25, 50, and 100 μM). Following treatment, MTT (0.5 mg/cm^3) was added to the medium and cells were further incubated for 2 h at 37 °C. Cells were lysed with DMSO and the absorbance of the formazan solution was measured at 550 nm with a plate reader (Victor, 1420 multilabel counter). […] The experiment was performed in triplicate. Values are expressed as the mean ± SD of at least three independent experiments.
For orientation: Formazan colour is commonly taken as a measure of viable cells.

In data set [2] the test system is HeLa (cervical cancer). In words: MTT cell viability assay, HeLa. The data set is classed as cell-based. The settings on record: Homo sapiens. On the procedure: as §1, §2
In data set [3] the test system is PC-3. In words: NCI-60 single dose screen, PC-3. The data set is classed as cell-based. To be noted: Homo sapiens, Prostate cancer, single concentration 10^−5 M, read-out: IGP (inhibition growth percent) PC-3. As for the experimental part: (§3) Aside from above, compounds 9–14 and 17–24 were also submitted to National Cancer Institute and evaluated for the cytotoxic effects toward 60 cell lines at a single dose of 10 μM (Table 2). […] As it was summarized in Table 2, leukemia RPMI-8226 and NSCLC A549/ATCC were most sensitive to compounds 18, 22, and 24. These derivatives in 10 μM concentration inhibited the growth of approximately 50% cells belonging to the above mention cell lines.
(§4) Cytotoxicity evaluation of compounds 9–14 and 17–24 was performed at the National Cancer Institute according to NCI-60 DTP human tumor cell line screen procedure.

Data set [4] has as its system MCF-7. In words: NCI-60 single dose screen, MCF-7. The data set is classed as cell-based. The settings on record: Homo sapiens, MCF7; Breast cancer; single concentration 10^−5 M; read-out: IGP (inhibition growth percent) MCF-7. On the procedure: as §3, §4
Data set [5] deals with HCT-116 (colon cancer). As to the kind of experiment: MTT cell viability assay, HCT-116. The data set is classed as cell-based. The settings on record: Homo sapiens, 72 h, mean ± SD. On the procedure: as §1, §2
Data set [6] has as its system EKVX. In words: NCI-60 single dose screen, EKVX. The settings on record: Homo sapiens, NSCLC, single concentration 10^−5 M, read-out: IGP (inhibition growth percent) EKVX. The data set is classed as cell-based. On the procedure:
as §3, §4

The subject of data set [7] is UO-31. As to the kind of experiment: NCI-60 single dose screen, UO-31. The data set is classed as cell-based. To be noted: Homo sapiens, Renal cancer, single concentration 10^−5 M, read-out: IGP (inhibition growth percent) UO-31. As for the experimental part: as §3, §4
Data set [8] has as its system RPMI-8226. In words: NCI-60 single dose screen, RPMI-8226. To be noted: Homo sapiens, RPMI-8226, Leukemia; single concentration 10^−5 M; read-out: IGP (inhibition growth percent) RPMI-8226. The data set is classed as cell-based. As for the experimental part: as §3, §4
Data set [9] deals with HOP-92. As to the kind of experiment: NCI-60 single dose screen, HOP-92. The data set is classed as cell-based. To be noted: Homo sapiens, NSCLC, single concentration 10^−5 M, read-out: IGP (inhibition growth percent) HOP-92. On the procedure: as §3, §4
Data set [10] relates to MOLT-4. As to the kind of experiment: NCI-60 single dose screen, MOLT-4. The data set is classed as cell-based. The settings on record: Homo sapiens, Leukemia, single concentration 10^−5 M, read-out: IGP (inhibition growth percent) MOLT-4. As for the experimental part: as §3, §4
Data set [11] has as its system NCI-H522. In words: NCI-60 single dose screen, NCI-H522. The settings on record: Homo sapiens, NSCLC, single concentration 10^−5 M, read-out: IGP (inhibition growth percent) NCI-H522. The data set is classed as cell-based. As for the experimental part:
as §3, §4

Data set [12] concerns SR. As to the kind of experiment: NCI-60 single dose screen, SR. The data set is classed as cell-based. The settings on record: Homo sapiens, Leukemia, single concentration 10^−5 M, read-out: IGP (inhibition growth percent) SR. As for the experimental part: as §3, §4
Data set [13] can be described thus: Metabolic stability in human liver microsomes with NADPH. The data set is classed as in vitro ADME. To be noted: pooled human liver microsomes, pH 7.4, human liver microsomes 0.5 mg/cm^3, NADPH 1 mM, 10 μM compound, 37 °C, read-out: in vitro metabolic half-life t1/2. As for the experimental part: Selected derivatives were submitted to metabolic stability study to assess their ability to remain unchanged in the presence of human metabolic enzymes. Human liver microsomes were used as they are a rich source of all common CYP isoenzymes. In vitro incubations were performed in the presence of NADPH as a cofactor and the disappearance of a derivative was followed using LC–MS technique. The in vitro metabolic half-life values are gathered in Fig. 3.
Stock solutions of studied compounds were prepared at concentration of 10 mM in DMSO. […] Incubation mixture contained 10 μM of a studied derivative, 1 mM of NADPH (Sigma-Aldrich) and 0.5 mg/cm^3 of pooled human liver microsomes (HLM, Sigma-Aldrich) in potassium phosphate buffer (0.1 M, pH 7.4). Incubation was carried out in thermostat at 37 °C and started by addition of studied compound. 50 mm^3 samples were taken at starting point and after 5, 15, 30, 45, and 60 min. Enzymatic reaction was terminated by the addition of the equal volume of ice-cold acetonitrile. Incubations were performed in triplicates, the average t1/2 and standard deviation was calculated. Control incubations were performed without NADPH to assess chemical instability. After collection, samples were immediately centrifuged (10 min, 10,000 rpm) and resulted supernatant was directly analyzed or kept in − 80 °C until LC–MS analysis. Natural logarithm of a compound over IS peak area ratio was plotted versus incubation time. Metabolic half-time (t1/2) was calculated from the slope of the linear regression.
LC–MS analysis was performed on an Agilent 1260 system coupled to SingleQuad 6120 mass spectrometer (Agilent Technologies, Santa Clara, CA, USA). Poroshell EC-C18 (2.1 mm × 150 mm, 2.7 μm, Agilent Technologies, Santa Clara, CA, USA) was used in reversed-phase mode with gradient elution starting with 5% of phase A (10 mM ammonium formate in water) and 95% of phase B (10 mM ammonium formate in acetonitrile–water mixture, 95:5 v/v). […] Total analysis time was 15 min at 40 °C, flow rate was 1 cm^3/min and the injection volume was 5 mm^3. The mass spectrometer was equipped with electrospray ion source and operated in positive ionization. Mass analyzer was set individually to each compound to detect [M+H]^+ protonated molecule. MSD parameters of the ESI source were as follows: nebulizer pressure 35 psig (N2), drying gas […] (N2), drying gas temperature 300 °C, capillary voltage 3 kV, fragmentor voltage 150 V.
(In general: Liver microsomes are vesicles of endoplasmic reticulum, rich in cytochrome P450 enzymes.)

Data set [14] has as its system UACC-62. In words: NCI-60 single dose screen, UACC-62. The data set is classed as cell-based. The settings on record: Homo sapiens, Melanoma, single concentration 10^−5 M, read-out: IGP (inhibition growth percent) UACC-62. On the procedure: as §3, §4
Data set [15] has as its system HCT-116. As to the kind of experiment: NCI-60 single dose screen, HCT-116. The data set is classed as cell-based. To be noted: Homo sapiens, Colon cancer, single concentration 10^−5 M, read-out: IGP (inhibition growth percent) HCT-116. On the procedure: as §3, §4
Data set [16] deals with A549/ATCC. In words: NCI-60 single dose screen, A549/ATCC. To be noted: Homo sapiens, A549, NSCLC; single concentration 10^−5 M; read-out: IGP (inhibition growth percent) A549/ATCC. The data set is classed as cell-based. On the procedure:
as §3, §4

Where [17] appears, read: Table 4, repeats Table 1 values without SD and unit.

Broadly, the IC50 is the point on the concentration scale where inhibition reaches its midpoint. Read a high IC50 as a need for much substance. Regarding `N.N.[Cl][Pt][Cl]` [Cisplatin, reference compound], the 50% inhibitory concentration (IC50) in [1] (72 h) was determined as 3 ± 0.1 µM.

In the case of `Cc1cc(S(=O)(=O)Nc2nc(C)c3ccccc3n2)c(SCc2ccccc2)cc1Cl` [Compound 9, 2-Benzylthio-4-chloro-5-methyl-N-(4-methylquinazolin-2-yl)benzenesulfonamide], the IC50 was 75 ± 5 µM in data set [2] (MTT, 72 h, mean ± SD); 75 µM in data set [2] (setting [17]); 61 ± 1 µM in [5]; 100 ± 2 µM in data set [1] (Homo sapiens, MCF7, 72 h). Further, the inhibition at 10 µM in data set [3] worked out at 2%; in [4], 2%; in [6], 3%; in data set [7] it was 27%; in data set [8] it was 15%; in data set [9] it was 3%. For the same compound, the inhibition at 10 µM in data set [10] turned out to be 12%; in [11] it was 9%; in [12], 6%; in data set [14] it was 29%. Besides, in data set [13], the half-life at 10 μM was 51.9 min.

For the compound `Cc1cc(S(=O)(=O)Nc2nc(-c3ccccc3)c3ccccc3n2)c(SCC(N)=O)cc1Cl` [Compound 14, 2-Carbamoylmethylthio-4-chloro-5-methyl-N-(4-phenylquinazolin-2-yl)benzenesulfonamide], the IC50 in [2] (MTT, 72 h, mean ± SD) was found to be 120 ± 1 µM; in [5], 85 ± 3 µM; in data set [1] (Homo sapiens, MCF7, 72 h), 155 ± 9 µM. Further, the inhibition at 10 µM in [7] was found to be 2%; in data set [10], 9%; in data set [11] it was 4%; in data set [12] it was 17%. The half-life at 10 μM in data set [13] came to 90.8 min.

With `Cc1nc(NS(=O)(=O)c2cc(C(=O)Nc3ccc(Cl)cc3)c(Cl)cc2SCC(N)=O)nc2ccccc12` [Compound 19, 2-Carbamoylmethylthio-4-chloro-5-(4-chlorophenylcarbamoyl)-N-(4-methylquinazolin-2-yl)benzenesulfonamide], the inhibition at 10 µM in data set [15] was found to be 4%; in data set [3], 4%; in data set [4] it was 4%; in data set [7] it was 7%; in [8] it was 3%; in [9], 8%. For the same compound, the values for the inhibition at 10 µM in data set [10], in data set [11] and in data set [12] were 3%, 8% and 4%, respectively. For the same compound, the IC50 came out at 117 ± 5 µM in data set [2] (MTT, 72 h, mean ± SD); 117 µM in [2] (setting [17]); 100 ± 4 µM in [5]; 105 ± 3 µM in data set [1] (Homo sapiens, MCF7, 72 h).

Take `NC(=O)CSc1cc(Cl)c(C(=O)Nc2ccc(Cl)cc2)cc1S(=O)(=O)Nc1nc(-c2ccccc2)c2ccccc2n1` [Compound 20, 2-Carbamoylmethylthio-4-chloro-5-(4-chlorophenylcarbamoyl)-N-(4-phenylquinazolin-2-yl)benzenesulfonamide]: the IC50 was 110 ± 7 µM in [2] (MTT, 72 h, mean ± SD); 110 µM in [2] (setting [17]); 140 ± 4 µM in data set [5]; 92 ± 1 µM in data set [1] (Homo sapiens, MCF7, 72 h). Moreover, the inhibition at 10 µM in [3] came to 2%; in data set [4], 3%; in data set [7], 3%; in data set [8] it was 10%; in data set [9], 4%; in data set [10] it was 5%. Moreover, the inhibition at 10 µM turned out to be 11% in [11], 6% in data set [12] and 8% in [14]. Besides, the half-life at 10 μM in data set [13] was 49.7 min.

For the compound `Cc1ccc(NC(=O)c2cc(S(=O)(=O)Nc3nc(C)c4ccccc4n3)c(SCc3ccccc3)cc2Cl)cc1` [Compound 23, 2-Benzylthio-4-chloro-5-(4-methylphenylcarbamoyl)-N-(4-methylquinazolin-2-yl)benzenesulfonamide], the IC50 in data set [2] (MTT, 72 h, mean ± SD) turned out to be 75 ± 2 µM; in [2] (setting [17]) it was 75 µM; in data set [5], 70 ± 1 µM; in data set [1] (Homo sapiens, MCF7, 72 h), 97 ± 2 µM. Besides, the inhibition at 10 µM in [3] is 18%; in data set [4], 8%; in [6], 15%; in data set [7], 21%; in [16], 6%; in data set [8], 17%. The figures for the inhibition at 10 µM in [10] and in data set [12] were 5% and 8%, respectively. In addition, the half-life at 10 μM in data set [13] came to 35 min.

The record behind these values is paper PMC6133092, “Synthesis of 2-alkylthio-N-(quinazolin-2-yl)benzenesulfonamide derivatives: anticancer activity, QSAR studies, and metabolic stability” (Monatshefte Fur Chemie, 2018).
